Experimental data taken from patent publication US20170183318A1, “AMIDE COMPOUNDS, METHODS FOR PREPARATION, AND USE THEREOF AS AGENTS FOR THE TREATMENT AND PREVENTION OF DISEASES CAUSED BY RNA- AND/OR DNA-CONTAINING VIRUSES, AND CONCOMITANT DISEASES” (OBSCHESTVO S OGRANICHENNOI OTVETSTVENNOSTIYU …, priority 2014, published 2017).
Where two headings read alike, the source gives them in different places. Starred links: 1 amine or outer side, 2 acyl side, 3 side chain; linkers in the order of their positions; H or OH if unused. Non-standard residues stand in square brackets, D forms with d. Residues, ends and D or L forms follow the SMILES beside them. ξ: configuration not given here. Glutaryl = O=C(CCCC(=O)[*:2])[*:1]; ξH = NC(Cc1c[nH]cn1)C(=O)O

Tests used:
[1] = system: human respiratory syncytial virus (strain A2); test: Antiviral activity against RS virus in a murine model of suppressed immune system (lung edema); type: in vivo; conditions: Balb/c mice, cyclophosphan-suppressed, RS-virus pneumonia; 30 mg/kg once daily for 5 days; M ± SD, n = 5; scores from possible 4
Method: Antiviral activity of the chemical compounds against human respiratory syncytial virus (strain A2, an infectious titer of 5×10^6 TCID50/mL) was assessed in a Balb/c murine model of viral pneumonia. The virus was inoculated to animals intranasally in a volume of 50 μL under brief ether anesthesia. The immune response in animals to RS virus was suppressed by intraperitoneal administration of cyclophosphan at a dose of 100 mg/kg 5 days before infection. The studied compounds were administered according to the treatment regimen once daily at a dose of 30 mg/kg for 5 days, starting 24 hours after infection. The activity of the compounds was determined by a reduction in edema of the lung infected with respiratory syncytial virus, compared to the control, on day 5 after infection.

human virus hRSV = test: Antiviral activity against mouse-adapted RS virus (body weight; viral titer in lungs titrated in Hep-2 cells); type: in vivo, mice; conditions: for hRSV in the lungs of mice, Day 5, lg / hRSV in the lungs of mice, Day 7, lg: 10% lung suspension titrated in Hep-2 cells (TCID); for hRSV in the lungs of mice, Day 5, lg / Body weight of the mice on day 5 after infection with hRSV (M ± SD) / hRSV in the lungs of mice, Day 7, lg / Body weight of the mice on day 7 after infection with hRSV (M ± SD): compounds 30 mg/kg, Ribavirin 40 mg/kg; for Body weight of the mice on day 5 after infection with hRSV (M ± SD) / Body weight of the mice on day 7 after infection with hRSV (M ± SD): orally once daily for 5 days, n = 6; for log reduction at 30 mg/kg: human respiratory syncytial virus, HEp-2, po
Method: Antiviral effectiveness of the chemical compounds against RSV in an experimental murine model in vivo was determined for human virus hRSV that was previously adapted to the growth in mouse lungs. The animals were infected with the virus at a dose of 0.5 log TCID50 intranasally under brief ether anesthesia in a volume of 0.05 ml/mouse. The studied compounds were administered orally once daily for 5 days according to the treatment regimen at a dose of 30 mg/kg. The first administration was made 24 hours after infection. Normal saline solution was administered to mice as placebo. Intact animals served as a negative control and were hold in a separate room under the same conditions as the experimental animals. Each experimental group comprised 12 animals.
The antiviral activity of the studied compounds was determined by the efficiency in the prevention of weight loss and by suppression of the reproduction of hRSV in the mouse lungs by measuring a viral titer in the experimental groups relative to the control on days 5 and 7 after infection.
In addition, the therapeutic action of the compounds of general formula I was determined by their ability to suppress the reproduction of hRSV in the mouse lungs on days 5 and 7 after infection. The viral titer was determined by the titration of a 10% lung suspension in Hep-2 cell culture. The result was registered 2 days after the incubation at 37° C. by TCID.

[2] = system: Coxsackie A2 virus (strain HCXV A2); test: Antiviral activity against Coxsackie virus in vivo (mortality and life expectancy of infected mice); conditions: for inhibition in vivo at 30 mg/kg / mortality at 30 mg/kg: Mus musculus, po; for inhibition in vivo at 30 mg/kg: 168 h, read-out: Protective index (%); for mortality at 30 mg/kg: 360 h, read-out: Total mortality, %; for Average life expectancy (days), Compared with control: difference vs virus control; for Average life expectancy (days), Relative: mice infected with 10LD50 HCXV A2
Method: In the study a trypsin-dependent strain HCXV A2 was used, previously adapted and causing death in mice from Coxsackie virus infection.
The experiment was carried out in white mice weighing 6 to 7 g. The animals were infected intramuscularly with a dose of 0.1 mL/mouse. The used infectious dose causing mortality in mice was 10LD50.
The ability of compounds to provide a therapeutic effect was determined by the mortality rate of HCXV A2 virus-infected mice in the experimental group relative to the group of untreated animals.
The studied compounds and placebo were administered orally according to the treatment regimen. Normal saline solution was administered to mice as placebo. Intact animals served as a negative control and were hold in a separate room under the same conditions as the experimental animals.
For the experiment, groups were formed with 14-15 animals each. Compounds were administered at a dose of 30 mg/kg of body weight. The studied compounds were administered orally once daily for 7 days (first administration was made 24 hours after infection). The animals were monitored for 15 days during which the animals were weighed and the mortality rate was registered every day.

[3] = 120 h, read-out: Suppression of the reproduction of hRSV in the lungs of mice, Day 5, Δlg
[4] = 168 h, read-out: Suppression of the reproduction of hRSV in the lungs of mice, Day 7, Δlg
[5] = 30 mg/kg orally once daily for 7 days, vs virus control
[6] = 30 mg/kg orally once daily for 7 days

Row | SMILES | Degree of lung edema on day 5 after infection, score [1] | Body weight of the mice on day 5 after infection with hRSV (M ± SD) (human virus hRSV) | Body weight of the mice on day 7 after infection with hRSV (M ± SD) (human virus hRSV) | inhibition in vivo at 30 mg/kg [2, 5] | mortality at 30 mg/kg [2] | Average life expectancy (days), Compared with control [2, 6] | Average life expectancy (days), Relative [2, 6] | also measured
1 | NC(=O)C(CO)NC(=O)C(Cc1cnc[nH]1)NC(=O)CCCC(=O)O (stereo not drawn) [Compound 96] (Glutaryl-His-Ser-NH2; configuration not given here) | 0.35 ± 0.11 score |  |  |  |  |  |  | 
2 | O=C(O)CCCC(=O)NCCc1cc[nH]c1 [Compound 120] | 1.05 ± 0.14 score | 16.12 ± 0.27 | 17.22 ± 0.20 |  |  |  |  | hRSV in the lungs of mice, Day 5, lg (human virus hRSV): 3.04 ± 0.47 lg; hRSV in the lungs of mice, Day 7, lg (human virus hRSV): 1.50 ± 0.25 lg; log reduction at 30 mg/kg (human virus hRSV; [3]): 1.56 ± 0.47; log reduction at 30 mg/kg (human virus hRSV; [4]): 2.05 ± 0.25
3 | O=C(O)CCCC(=O)NCCc1cncs1 [Compound 122] |  | 16.93 ± 0.32 | 16.37 ± 0.21 |  |  |  |  | hRSV in the lungs of mice, Day 5, lg (human virus hRSV): 3.04 ± 0.44 lg; hRSV in the lungs of mice, Day 7, lg (human virus hRSV): 1.75 ± 0.41 lg; log reduction at 30 mg/kg (human virus hRSV; [3]): 1.56 ± 0.44; log reduction at 30 mg/kg (human virus hRSV; [4]): 1.88 ± 0.47
4 | O=C(O)CCCC(=O)NCCC1CNC=N1 (stereo not drawn) [Compound 4] | 1.95 ± 0.31 score | 16.77 ± 0.20 | 17.08 ± 0.32 |  |  |  |  | hRSV in the lungs of mice, Day 5, lg (human virus hRSV): 2.58 ± 0.51 lg; hRSV in the lungs of mice, Day 7, lg (human virus hRSV): 1.38 ± 0.24 lg; log reduction at 30 mg/kg (human virus hRSV; [3]): 2.02 ± 0.51; log reduction at 30 mg/kg (human virus hRSV; [4]): 2.58 ± 0.53
5 | O=C(O)CCCC(=O)NCCc1ncccn1 [Compound 12] |  |  |  | 45% | 40% | +14.2 days | 24.9 days | 
6 | O=C(O)CCCC(=O)NCCC1CNCCN1 (stereo not drawn) [Compound 8] |  | 15.18 ± 0.18 | 17.13 ± 0.27 |  |  |  |  | 
7 | O=C(O)CCCC(=O)NCCCc1ccco1 [Compound 32] |  |  |  | 33% | 42.9% | +10.0 days | 22.2 days | 
8 | NC(=O)CNC(=O)C(Cc1c[nH]cn1)NC(=O)CCCC(=O)O (stereo not drawn) [Compound 184] (Glutaryl-[ξH]-Gly-NH2) | 1.00 ± 0.19 score |  |  |  |  |  |  | 
9 | COC(=O)C(C)NC(=O)C(Cc1cnc[nH]1)NC(=O)CCCC(=O)O (stereo not drawn) [Compound 91] | 0.40 ± 0.11 score |  |  |  |  |  |  | 
10 | O=C(O)CCCC(=O)NCCC1CNCCO1 (stereo not drawn) [Compound 9] | 1.00 ± 0.17 score | 15.75 ± 0.33 | 16.18 ± 0.29 |  |  |  |  | 
11 | O=C(O)CCCC(=O)NCCCc1ccccn1 [Compound 35] | 1.48 ± 0.17 score |  |  | 27% | 53.3% | +5.9 days | 16.6 days | 
12 | O=C(O)CCCC(=O)NCCc1cscn1 [Compound 121] | 1.30 ± 0.60 score | 16.35 ± 0.20 | 17.38 ± 0.29 |  |  |  |  | hRSV in the lungs of mice, Day 5, lg (human virus hRSV): 3.08 ± 0.47 lg; hRSV in the lungs of mice, Day 7, lg (human virus hRSV): 1.50 ± 0.14 lg; log reduction at 30 mg/kg (human virus hRSV; [3]): 1.52 ± 0.47; log reduction at 30 mg/kg (human virus hRSV; [4]): 2.09 ± 0.22
13 | CC(C)C(NC(=O)C(Cc1cnc[nH]1)NC(=O)CCCC(=O)O)C(N)=O (stereo not drawn) [Compound 90] (Glutaryl-His-Val-NH2; configuration not given here) |  |  |  | 50% | 35.7% | +15.1 days | 25.9 days | 
14 | O=C(O)CCCC(=O)NCCC1=NCCN1 [Compound 3] | 1.6 ± 0.89 score | 16.65 ± 0.28 | 17.32 ± 0.25 |  |  |  |  | hRSV in the lungs of mice, Day 5, lg (human virus hRSV): 3.04 ± 0.42 lg; hRSV in the lungs of mice, Day 7, lg (human virus hRSV): 1.46 ± 0.17 lg; log reduction at 30 mg/kg (human virus hRSV; [3]): 1.56 ± 0.42; log reduction at 30 mg/kg (human virus hRSV; [4]): 2.18 ± 0.28
15 | CC(C)(CCC(=O)NC(Cc1c[nH]cn1)C(=O)O)C(=O)O (stereo not drawn) [Compound 75] |  |  |  | 50% | 35.7% | +14.3 days | 27.3 days | 
16 | CC(CCC(=O)O)C(=O)NCCc1c[nH]cn1 (stereo not drawn) [Compound 30] |  |  |  | 18% | 60% | +2.4 days | 13.1 days | 
17 | O=C(O)CCCC(=O)NCCC1COCCN1 (stereo not drawn) [Compound 10] |  | 16.18 ± 0.29 | 16.53 ± 0.20 |  |  |  |  | 
18 | COC(=O)C(NC(=O)C(Cc1cnc[nH]1)NC(=O)CCCC(=O)O)C(C)C (stereo not drawn) [Compound 89] (Glutaryl-His-Val-OMe; configuration not given here) | 0.75 ± 0.17 score |  |  | 27% | 53.3% | +7.0 days | 17.7 days | 
19 | CN(CCc1cnc[nH]1)C(=O)CCCC(=O)O [Compound 117] |  | 16.07 ± 0.12 | 16.48 ± 0.28 |  |  |  |  | hRSV in the lungs of mice, Day 5, lg (human virus hRSV): 3.00 ± 0.41 lg; hRSV in the lungs of mice, Day 7, lg (human virus hRSV): 1.46 ± 0.24 lg; log reduction at 30 mg/kg (human virus hRSV; [3]): 1.6 ± 0.41; log reduction at 30 mg/kg (human virus hRSV; [4]): 2.22 ± 0.34
20 | COC(=O)C(NC(=O)C(Cc1cnc[nH]1)NC(=O)CCCC(=O)O)C(C)O (stereo not drawn) [Compound 148] (Glutaryl-His-Thr-OMe; configuration not given here) | 2.00 ± 0.31 score |  |  |  |  |  |  | 
21 | O=C(O)CCCC(=O)NCCc1ccc(Cl)nc1 [Compound 36] |  |  |  | 27% | 53.3% | +6.0 days | 16.7 days | 
22 | O=C(O)CCCC(=O)OCCc1cnc[nH]1 [Compound 71] |  |  |  | 44% | 35.7% | +16.4 days | 28.6 days | 
23 | O=C(O)CCCC(=O)NCCc1cnon1 [Compound 29] |  |  |  | 50% | 35.7% | +13.7 days | 26.7 days | 
24 | O=C(O)CCCC(=O)NCCc1cccnn1 [Compound 13] |  |  |  | 36% | 46.7% | +8.3 days | 19.0 days | 
25 | O=C(O)CCCC(=O)NCCc1cn2ccccc2n1 [Compound 139] | 1.75 ± 0.77 score |  |  |  |  |  |  | 
26 | O=C(O)CCCC(=O)NCCc1ccc[nH]1 [Compound 14] |  |  |  |  | 50% | +10.4 days | 21.4 days | inhibition in vivo at 30 mg/kg [2]: 36%
